From paper PMC8333425, “Discovery of a dual Ras and ARF6 inhibitor from a GPCR endocytosis screen” (Nature Communications, 2021)
pIC50: −log10 of the molar value. “And” between values parts separate entries of the source, which are not always exact repeats. Equal entries are not always repeated.

Tests used:
[1] = tested on: PI3K/Akt; assay: PI3K/Akt BRET sensor (Akt (PH)-RlucII / rGFP-CAAX), EGFR-mediated; assay type: cell-based, human
Procedure: HEK293SL cells were seeded at a density of 7.5 × 10^5 cells per 100-mm dish and 24 h later, transiently transfected as such. For receptor internalization experiments, cells were transfected with 0.12 μg AT1R-RlucII, B2R-RlucII, or β2AR-RlucII and 0.48 μg of either rGFP-CAAX (to assess removal from the PM) or rGFP-FYVE (to assess accumulation in the endosomes). For β-arrestin recruitment assays, cells were transfected with 0.48 μg of receptor-YFP along with 0.12 μg of β-arrestin-RlucII. For β-arrestin/AP-2 binding experiments, cells were transfected with 1 μg Flag-AT1R, 1 μg β2-Adaptin-YFP, and 0.12 μg β-arrestin2-RlucII. For G protein activation, cells were transfected with 3 μg of sp-Flag-AT1R along with either 4.5 μg of the Gαq-polycistronic BRET sensor or 0.24 μg of the Gαi3-RlucII and 0.6 μg of GFP10-Gγ2 and Gβ1 sensors or 0.12 μg PKN-RBD-RlucII and 0.48 μg of rGFP-CAAX. For PKC activation, cells were transfected with 3 μg of sp-Flag-AT1R and 0.18 μg of the PKC sensor. For GTPase activation experiments, cells were transfected with 1 μg Flag-AT1R, 0.48 μg of rGFP-CAAX, and either 0.12 μg of GGA3-PBD-RlucII, PAK-CRIB-RlucII or Raf-RBD-RlucII. For biosensor validation experiments, cells were additionally transfected with 500 ng Flag-K-Ras-WT, Flag-K-Ras-G12V, Flag-K-Ras-SOS-CAAX, HA-ARF6-WT, HA-ARF6-T27N, Myc-Rac1-WT, Myc-Rac1-Q61L or Myc-Rac1-T17N. For PI3K/Akt activation experiments, cells were transfected with 0.48 μg of rGFP-CAAX and 0.12 μg of Akt (PH)-RlucII. After 18 h of transfection, the media was replaced and cells were divided for subsequent experiments. Cells were detached and seeded onto poly-L-ornithine-coated 96-well flat white bottom plates (BrandTech Scientific) at a density of 2.5 × 10^4 cells per well in media. The next day, cells were washed once with Tyrode’s buffer (140 mM NaCl, 2.7 mM KCl, 1 mM CaCl2, 12 mM NaHCO3, 5.6 mM D-glucose, 0.5 mM MgCl2, 0.37 mM NaH2PO4, 25 mM HEPES, pH 7.4) and left in Tyrode’s buffer. For kinetics of β-arrestin recruitment or β-arrestin binding to receptor and AP-2 experiments, cells were serum starved for 30 min, pretreated with 21 (50 µM) or Barbadin (100 µM) for 30 min, stimulated with 100 nM AngII or 1 µM BK and BRET signals were monitored at indicated times using a Victor X Light plate reader (PerkinElmer). Coelenterazine H (final concentration of 5 µM) was added 3–5 min prior to BRET measurements. Filter set was 460/80 nm and 535/30 nm for detecting the RlucII Renilla luciferase (donor) and YFP (acceptor) light emissions, respectively. The BRET ratio was determined by calculating the ratio of the light emitted by YFP over the light emitted by the RlucII. For G protein activation, cells were serum starved, pretreated with compounds for 30 min, stimulated with 100 nM AngII for 2 min (Gαq, Gαi3, and Rho sensors) or 5 min (PKC sensor). For the kinetics of GTPase and PI3K/Akt activation, cells were serum starved, pretreated with 21 (50 µM) or Wortmannin (200 nM) for 30 min, stimulated with ligand (100 nM AngII or 100 ng/ml EGF) and BRET signals were monitored at indicated times. For concentration-response curves, cells were serum-starved, pretreated with various concentrations of compounds for 30 min and stimulated with ligand (100 nM AngII, 1 µM BK, 10 µM Isoproterenol (Iso) or 100 ng/ml EGF) in Tyrode’s buffer for 30 min for receptor internalization, 10 min for ARF6, 2 min for Rac and Rho activation and 5 min for Ras activation and PI3K/Akt activation. BRET signals were monitored using a Synergy2 (BioTek) microplate reader and coelenterazine 400a (final concentrations of 5 µM) added 3–5 min prior to BRET measurements. Filter set was 410/80 nm and 515/30 nm for detecting the RlucII Renilla luciferase (donor) and rGFP/GFP10 (acceptor) light emissions, respectively. The BRET ratio was determined by calculating the ratio of the light emitted by rGFP/GFP10 over the light emitted by the RlucII.

[2] = target: H-Ras (Homo sapiens, UniProt P01112); assay: GST-Raf1-RBD pull-down of EGFR-mediated H-Ras activation in MDA-MB-231 cells; assay type: cell-based; set-up: endogenous in cells; host or cells: MDA-MB-231; conditions: 50 μM
H-Ras, sequence (P01112 whole entry): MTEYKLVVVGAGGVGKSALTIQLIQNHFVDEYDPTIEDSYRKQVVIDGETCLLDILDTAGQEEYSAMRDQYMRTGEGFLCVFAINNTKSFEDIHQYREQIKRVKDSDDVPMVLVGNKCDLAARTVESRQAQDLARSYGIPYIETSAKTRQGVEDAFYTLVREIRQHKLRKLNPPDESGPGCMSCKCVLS
Procedure: Activation of ARF1, ARF6, Ras, and Rho were assessed by using GST pull-down assays. HEK293SL cells were transiently transfected with 3 µg AT1R-flag only (Ras and Rho) or along with 500 ng HA-ARF6 (ARF6) or HA-ARF1 (ARF1). Forty-eight hours later, the HEK293 or MDA-MB-231 cells were serum-starved for 4 h with DMEM containing 20 mM HEPES then pretreated with DMSO or Rasarfin (50 µM) for 30 min. Cells were then stimulated with 1 µM AngII or 100 ng/ml EGF for 0 and 2 min. Cells were then washed once with ice-cold PBS and lysed for 30 min at 4 °C in 300 µl of lysis buffer (pH 7.5, 50 mM Tris-HCl, 140 mM NaCl, 5 mM MgCl2, 10% glycerol (v/v), 1% Nonidet P-40 (v/v), 1 mM dithiothreitol) supplemented with protease inhibitors (1 mM phenylmethyl-sulfonyl fluoride (PMSF), 10 µg/ml leupeptin, 5 µg/ml aprotinin, 1 µg/ml pepstatin A) and phosphatase inhibitors (20 mM NaF, 0.025 mM pervanadate). The samples were cleared by centrifugation and 30 µl (cell lysates) was kept for assessing total protein contents. The remaining was transferred to fresh tubes with 20 µg of either GST, GST-GGA3-PBD, GST-Raf1-RBD or GST-Rhotekin-RBD coupled to glutathione resin and rotated for 1–2 h at 4 °C. […] ImageLab 5.2 software was used to quantify the digital blots as fold of the amount of pulled down protein over total protein. […]

## CC(C)C(=O)N1CCN(c2ccc(NC(=O)c3cc4ccccc4o3)cc2Cl)CC1 [Compound 21]
[1]; Homo sapiens, read-out: potency for inhibition of EGFR-mediated Akt (BRET assay)
  pIC50: 5.30 to 5.40
[1]; Log [Comp 21] (M) -4.30103
  EGF-promoted BRET: 0.039 and 0.07107 and 0.056
[1]; Log [Comp 21] (M) -5.32288
  EGF-promoted BRET: 0.1533 and 0.2873 and 0.2883
[1]; Log [Comp 21] (M) -6
  EGF-promoted BRET: 0.6727 and 0.6567 and 0.6163
[1]; Log [Comp 21] (M) -6.32288
  EGF-promoted BRET: 0.7007 and 0.6398 and 0.6137
[1]; Log [Comp 21] (M) -7
  EGF-promoted BRET: 0.7123 and 0.6372 and 0.6493
[2]
  Ras activity in MDA-MB-231 cells (pull-down): inhibited
